Source: US10765114B2, “4-amino-6-(pyridyl and 2-substitutedphenyl)-picolinates and 6-amino-2-(pyridyl and 2-substitutedphenyl)-pyrimidine-4-carboxylates and their use as herbicides” (Dow AgroSciences LLC, priority 2013, dated 2020)

Tested on: Key Broadleaf Weed and Crop Species
Experiment: Post-Emergent Test II (Table 5)
Type: in vivo
Settings: Abutilon theophrasti, post-emergence, 336 h, ABUTH: velvetleaf (Abutilon theophrasti), application rate 70 (kg ai/ha; footnote: g ai/ha), read-out: Visual Growth Reduction (%) 14 Days After Application ABUTH
Outline: (§1)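 Visual injury ratings (0 = no injury, 100 = complete kill) taken 14 days after treatment, relative to untreated controls. Compounds, in an acetone/DMSO aqueous carrier with crop oil and surfactant, were applied by track sprayer at 187 L/ha, in a twofold dilution series from the top rate, to plants at the first to second true-leaf stage.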

Row | SMILES | pest or weed control at 70 g/ha [%]
1 | COC(=O)c1nc(-c2ccc(C(F)(F)F)nc2)c(Cl)c(N)c1Cl [Compound 83] | 60 to 74

Same assay, conditions: Abutilon theophrasti, post-emergence, 336 h, ABUTH: velvetleaf (Abutilon theophrasti), application rate 140 (kg ai/ha; footnote: g ai/ha), read-out: Visual Growth Reduction (%) 14 Days After Application ABUTH

Row | SMILES | pest or weed control at 140 g/ha [%]
2 | COC(=O)c1nc(-c2ccc(C(F)(F)F)nc2)c(Cl)c(N)c1Cl [Compound 83] | 60 to 74

Same assay, conditions: Amaranthus retroflexus, post-emergence, 336 h, AMARE: redroot pigweed (Amaranthus retroflexus), application rate 70 (kg ai/ha; footnote: g ai/ha), read-out: Visual Growth Reduction (%) 14 Days After Application AMARE

Row | SMILES | pest or weed control at 70 g/ha [%]
3 | COC(=O)c1nc(-c2ccc(C(F)(F)F)nc2)c(Cl)c(N)c1Cl [Compound 83] | 0 to 29

Same assay, conditions: Amaranthus retroflexus, post-emergence, 336 h, AMARE: redroot pigweed (Amaranthus retroflexus), application rate 140 (kg ai/ha; footnote: g ai/ha), read-out: Visual Growth Reduction (%) 14 Days After Application AMARE

Row | SMILES | pest or weed control at 140 g/ha [%]
4 | COC(=O)c1nc(-c2ccc(C(F)(F)F)nc2)c(Cl)c(N)c1Cl [Compound 83] | 0 to 29

Same assay, conditions: Brassica napus, post-emergence, 336 h, BRSSS: oilseed rape, canola (Brassica napus), application rate 70 (kg ai/ha; footnote: g ai/ha), read-out: Visual Growth Reduction (%) 14 Days After Application BRSSS

Row | SMILES | pest or weed control at 70 g/ha [%]
5 | COC(=O)c1nc(-c2ccc(C(F)(F)F)nc2)c(Cl)c(N)c1Cl [Compound 83] | 45 to 59

Same assay, conditions: Brassica napus, post-emergence, 336 h, BRSSS: oilseed rape, canola (Brassica napus), application rate 140 (kg ai/ha; footnote: g ai/ha), read-out: Visual Growth Reduction (%) 14 Days After Application BRSSS

Row | SMILES | pest or weed control at 140 g/ha [%]
6 | COC(=O)c1nc(-c2ccc(C(F)(F)F)nc2)c(Cl)c(N)c1Cl [Compound 83] | 45 to 59

Same assay, conditions: Chenopodium album, post-emergence, 336 h, CHEAL: lambsquarters (Chenopodium album), application rate 70 (kg ai/ha; footnote: g ai/ha), read-out: Visual Growth Reduction (%) 14 Days After Application CHEAL

Row | SMILES | pest or weed control at 70 g/ha [%]
7 | COC(=O)c1nc(-c2ccc(C(F)(F)F)nc2)c(Cl)c(N)c1Cl [Compound 83] | 60 to 74

Same assay, conditions: Chenopodium album, post-emergence, 336 h, CHEAL: lambsquarters (Chenopodium album), application rate 140 (kg ai/ha; footnote: g ai/ha), read-out: Visual Growth Reduction (%) 14 Days After Application CHEAL

Row | SMILES | pest or weed control at 140 g/ha [%]
8 | COC(=O)c1nc(-c2ccc(C(F)(F)F)nc2)c(Cl)c(N)c1Cl [Compound 83] | 75 to 84

Same assay, conditions: Euphorbia heterophylla, post-emergence, 336 h, EPHHL: wild poinsettia (Euphorbia heterophylla), application rate 70 (kg ai/ha; footnote: g ai/ha), read-out: Visual Growth Reduction (%) 14 Days After Application EPHHL

Row | SMILES | pest or weed control at 70 g/ha [%]
9 | COC(=O)c1nc(-c2ccc(C(F)(F)F)nc2)c(Cl)c(N)c1Cl [Compound 83] | 0 to 29

Same assay, conditions: Euphorbia heterophylla, post-emergence, 336 h, EPHHL: wild poinsettia (Euphorbia heterophylla), application rate 140 (kg ai/ha; footnote: g ai/ha), read-out: Visual Growth Reduction (%) 14 Days After Application EPHHL

Row | SMILES | pest or weed control at 140 g/ha [%]
10 | COC(=O)c1nc(-c2ccc(C(F)(F)F)nc2)c(Cl)c(N)c1Cl [Compound 83] | 30 to 44

Same assay, conditions: Helianthus annuus, post-emergence, 336 h, HELAN: sunflower (Helianthus annuus), application rate 70 (kg ai/ha; footnote: g ai/ha), read-out: Visual Growth Reduction (%) 14 Days After Application HELAN

Row | SMILES | pest or weed control at 70 g/ha [%]
11 | COC(=O)c1nc(-c2ccc(C(F)(F)F)nc2)c(Cl)c(N)c1Cl [Compound 83] | 85 to 94

Same assay, conditions: Helianthus annuus, post-emergence, 336 h, HELAN: sunflower (Helianthus annuus), application rate 140 (kg ai/ha; footnote: g ai/ha), read-out: Visual Growth Reduction (%) 14 Days After Application HELAN

Row | SMILES | pest or weed control at 140 g/ha [%]
12 | COC(=O)c1nc(-c2ccc(C(F)(F)F)nc2)c(Cl)c(N)c1Cl [Compound 83] | 85 to 94

Same assay, conditions: Viola tricolor, post-emergence, 336 h, VIOTR: wild pansy (Viola tricolor), application rate 70 (kg ai/ha; footnote: g ai/ha), read-out: Visual Growth Reduction (%) 14 Days After Application VIOTR

Row | SMILES | pest or weed control at 70 g/ha [%]
13 | COC(=O)c1nc(-c2ccc(C(F)(F)F)nc2)c(Cl)c(N)c1Cl [Compound 83] | 0 to 29

Same assay, conditions: Viola tricolor, post-emergence, 336 h, VIOTR: wild pansy (Viola tricolor), application rate 140 (kg ai/ha; footnote: g ai/ha), read-out: Visual Growth Reduction (%) 14 Days After Application VIOTR

Row | SMILES | pest or weed control at 140 g/ha [%]
14 | COC(=O)c1nc(-c2ccc(C(F)(F)F)nc2)c(Cl)c(N)c1Cl [Compound 83] | 0 to 29

Tested on: not given
Experiment: not given
Settings: not given

Row | melting point [°C] | SMILES
15 | 148 to 150 | COC(=O)c1nc(-c2ccc(C(F)(F)F)nc2)c(Cl)c(N)c1Cl [Compound 83]

Tested on: Key Grass and Sedge Weeds as well as Grass Crops
Experiment: Post-Emergent Test II (Table 6)
Type: in vivo
Settings: post-emergence, 336 h, CYPSS, 70 g ai/ha, 14 days after application, read-out: Visual Growth Reduction (%) 14 Days After Application CYPSS
Outline: as §1

Row | SMILES | pest or weed control at 70 g/ha [%]
16 | COC(=O)c1nc(-c2ccc(C(F)(F)F)nc2)c(Cl)c(N)c1Cl [Compound 83] | 30 to 44

Same assay, conditions: post-emergence, 336 h, CYPSS, 140 g ai/ha, 14 days after application, read-out: Visual Growth Reduction (%) 14 Days After Application CYPSS

Row | SMILES | pest or weed control at 140 g/ha [%]
17 | COC(=O)c1nc(-c2ccc(C(F)(F)F)nc2)c(Cl)c(N)c1Cl [Compound 83] | 45 to 59

Same assay, conditions: post-emergence, 336 h, DIGSA: crabgrass (Digitaria sanguinalis), 70 g ai/ha, 14 days after application, read-out: Visual Growth Reduction (%) 14 Days After Application DIGSA

Row | SMILES | pest or weed control at 70 g/ha [%]
18 | COC(=O)c1nc(-c2ccc(C(F)(F)F)nc2)c(Cl)c(N)c1Cl [Compound 83] | 60 to 74

Same assay, conditions: post-emergence, 336 h, DIGSA: crabgrass (Digitaria sanguinalis), 140 g ai/ha, 14 days after application, read-out: Visual Growth Reduction (%) 14 Days After Application DIGSA

Row | SMILES | pest or weed control at 140 g/ha [%]
19 | COC(=O)c1nc(-c2ccc(C(F)(F)F)nc2)c(Cl)c(N)c1Cl [Compound 83] | 75 to 84

Same assay, conditions: post-emergence, 336 h, ECHSS, 70 g ai/ha, 14 days after application, read-out: Visual Growth Reduction (%) 14 Days After Application ECHSS

Row | SMILES | pest or weed control at 70 g/ha [%]
20 | COC(=O)c1nc(-c2ccc(C(F)(F)F)nc2)c(Cl)c(N)c1Cl [Compound 83] | 60 to 74

Same assay, conditions: post-emergence, 336 h, ECHSS, 140 g ai/ha, 14 days after application, read-out: Visual Growth Reduction (%) 14 Days After Application ECHSS

Row | SMILES | pest or weed control at 140 g/ha [%]
21 | COC(=O)c1nc(-c2ccc(C(F)(F)F)nc2)c(Cl)c(N)c1Cl [Compound 83] | 75 to 84

Same assay, conditions: post-emergence, 336 h, ORYSS (crop), 70 g ai/ha, 14 days after application, read-out: Visual Growth Reduction (%) 14 Days After Application ORYSS

Row | SMILES | pest or weed control at 70 g/ha [%]
22 | COC(=O)c1nc(-c2ccc(C(F)(F)F)nc2)c(Cl)c(N)c1Cl [Compound 83] | 0 to 29

Same assay, conditions: post-emergence, 336 h, ORYSS (crop), 140 g ai/ha, 14 days after application, read-out: Visual Growth Reduction (%) 14 Days After Application ORYSS

Row | SMILES | pest or weed control at 140 g/ha [%]
23 | COC(=O)c1nc(-c2ccc(C(F)(F)F)nc2)c(Cl)c(N)c1Cl [Compound 83] | 0 to 29

Same assay, conditions: post-emergence, 336 h, SETFA: giant foxtail (Setaria faberi), 70 g ai/ha, 14 days after application, read-out: Visual Growth Reduction (%) 14 Days After Application SETFA

Row | SMILES | pest or weed control at 70 g/ha [%]
24 | COC(=O)c1nc(-c2ccc(C(F)(F)F)nc2)c(Cl)c(N)c1Cl [Compound 83] | 75 to 84

Same assay, conditions: post-emergence, 336 h, SETFA: giant foxtail (Setaria faberi), 140 g ai/ha, 14 days after application, read-out: Visual Growth Reduction (%) 14 Days After Application SETFA

Row | SMILES | pest or weed control at 140 g/ha [%]
25 | COC(=O)c1nc(-c2ccc(C(F)(F)F)nc2)c(Cl)c(N)c1Cl [Compound 83] | 75 to 84

Same assay, conditions: post-emergence, 336 h, SORVU: grain sorghum (Sorghum vulgare), 70 g ai/ha, 14 days after application, read-out: Visual Growth Reduction (%) 14 Days After Application SORVU

Row | SMILES | pest or weed control at 70 g/ha [%]
26 | COC(=O)c1nc(-c2ccc(C(F)(F)F)nc2)c(Cl)c(N)c1Cl [Compound 83] | 75 to 84

Same assay, conditions: post-emergence, 336 h, SORVU: grain sorghum (Sorghum vulgare), 140 g ai/ha, 14 days after application, read-out: Visual Growth Reduction (%) 14 Days After Application SORVU

Row | SMILES | pest or weed control at 140 g/ha [%]
27 | COC(=O)c1nc(-c2ccc(C(F)(F)F)nc2)c(Cl)c(N)c1Cl [Compound 83] | 75 to 84

Same assay, conditions: post-emergence, 336 h, TRZSS (crop), 70 g ai/ha, 14 days after application, read-out: Visual Growth Reduction (%) 14 Days After Application TRZSS

Row | SMILES | pest or weed control at 70 g/ha [%]
28 | COC(=O)c1nc(-c2ccc(C(F)(F)F)nc2)c(Cl)c(N)c1Cl [Compound 83] | 45 to 59

Same assay, conditions: post-emergence, 336 h, TRZSS (crop), 140 g ai/ha, 14 days after application, read-out: Visual Growth Reduction (%) 14 Days After Application TRZSS

Row | SMILES | pest or weed control at 140 g/ha [%]
29 | COC(=O)c1nc(-c2ccc(C(F)(F)F)nc2)c(Cl)c(N)c1Cl [Compound 83] | 60 to 74

Same assay, conditions: post-emergence, 336 h, ZEAMX: maize, corn (Zea mays), 70 g ai/ha, 14 days after application, read-out: Visual Growth Reduction (%) 14 Days After Application ZEAMX

Row | SMILES | pest or weed control at 70 g/ha [%]
30 | COC(=O)c1nc(-c2ccc(C(F)(F)F)nc2)c(Cl)c(N)c1Cl [Compound 83] | 75 to 84

Same assay, conditions: post-emergence, 336 h, ZEAMX: maize, corn (Zea mays), 140 g ai/ha, 14 days after application, read-out: Visual Growth Reduction (%) 14 Days After Application ZEAMX

Row | SMILES | pest or weed control at 140 g/ha [%]
31 | COC(=O)c1nc(-c2ccc(C(F)(F)F)nc2)c(Cl)c(N)c1Cl [Compound 83] | 75 to 84
